Experimental data: patent US20260007617A1, “METHOD FOR TREATING RENAL CELL CARCINOMA OR CANCER” (Lantern Pharma Inc., priority 2023, published 2026)

Tests used:
Type in all cases: cell-based
[1] = tested on: SN12C; experiment: cell viability IC50 over 72 hours, SN12C kidney cell line; conditions: Homo sapiens
Procedure: (§1) FIG. 4 details the sensitivity of various cell lines to LP-184, showing cell death over 72 hours. Sensitivity, gauged by IC50 data, reflects how effectively a substance can inhibit a particular biological or biochemical function. […] This IC50 value, indicating the concentration needed to reduce cell viability by 50%, is key to understanding the compound's efficacy and the temporal response of the cells to the substance. Such analyses are vital for new drug development and therapeutic approaches, offering important insights into how cells react to different compounds over time.
as §1, with “Sensitivity,” for “FIG. 4 details the sensitivity of various cell lines to LP-184, showing cell death over 72 hours. Sensitivity,”

[2] = tested on: 769P; experiment: sensitivity of renal cell line 769P to LP-184; conditions: 769P cell line
Description: (§2) By contrast, the RPE1 cell lines acted as a negative control, showcasing a distinct reaction to the treatment.

[3] = tested on: TK10; experiment: cell viability IC50 over 72 hours, TK10 kidney cell line; conditions: Homo sapiens, TK-10
Procedure: as §1
as §1, with “Sensitivity,” for “FIG. 4 details the sensitivity of various cell lines to LP-184, showing cell death over 72 hours. Sensitivity,”

[4] = tested on: RXF393; experiment: cell viability IC50 over 72 hours, RXF393 kidney cell line; conditions: for IC50: Homo sapiens, RXF 393, RXF393 cell line, Kidney, 72 hours
Procedure: as §1
as §1, with “Sensitivity,” for “FIG. 4 details the sensitivity of various cell lines to LP-184, showing cell death over 72 hours. Sensitivity,”

[5] = tested on: ACHN; experiment: cell viability IC50 over 72 hours, ACHN kidney cell line; conditions: Homo sapiens
Procedure: as §1
as §1, with “Sensitivity,” for “FIG. 4 details the sensitivity of various cell lines to LP-184, showing cell death over 72 hours. Sensitivity,”

[6] = tested on: 786O; experiment: sensitivity of renal cell line 786O to LP-184; conditions: 786O cell line
Description: as §2

[7] = tested on: A498; experiment: cell viability IC50 over 72 hours, A498 kidney cell line; conditions: for IC50: Homo sapiens, A498 cell line, Kidney, 72 hours
Procedure: as §1
as §1, with “Sensitivity,” for “FIG. 4 details the sensitivity of various cell lines to LP-184, showing cell death over 72 hours. Sensitivity,”

[8] = tested on: CAK11; experiment: cell viability IC50 over 72 hours, CAK11 kidney cell line
Procedure: as §1
as §1, with “Sensitivity,” for “FIG. 4 details the sensitivity of various cell lines to LP-184, showing cell death over 72 hours. Sensitivity,”

[9] = tested on: X7860; experiment: cell viability IC50 over 72 hours, X7860 kidney cell line
Procedure: as §1
as §1, with “Sensitivity,” for “FIG. 4 details the sensitivity of various cell lines to LP-184, showing cell death over 72 hours. Sensitivity,”

[10] = tested on: UO31; experiment: cell viability IC50 over 72 hours, UO31 kidney cell line; conditions: Homo sapiens, UO-31
Procedure: as §1
as §1, with “Sensitivity,” for “FIG. 4 details the sensitivity of various cell lines to LP-184, showing cell death over 72 hours. Sensitivity,”

| IC50 [5] | SMILES | IC50 [1] | sensitivity of cell line (in words) [2] | IC50 [3] | IC50 [4] | sensitivity of cell line (in words) ([4]; RXF393 clear cell renal carcinoma cell line) | sensitivity of cell line (in words) [6] | sensitivity of cell line (in words) ([7]; A498 clear cell renal carcinoma cell line) | IC50 [7] | IC50 [8] | IC50 [9] | IC50 [10] |
| --- | --- | --- | --- | --- | --- | --- | --- | --- | --- | --- | --- | --- |
| 222 nM | CC1=C(CN(O)C(N)=O)C2=C(C)C3(CC3)[C@@](C)(O)C(=O)C2=C1 [LP-184, (−)-hydroxyureamethyl acylfulvene] | 349 nM | low sensitivity | 314 nM | 152 nM | high sensitivity | low sensitivity | high sensitivity | 179 nM | 282 nM | 331 nM | 178 nM |
| 1130 nM | CC1=C(CN(O)C(N)=O)C2=C(C)C3(CC3)[C@](C)(O)C(=O)C2=C1 [LP-284, (+)-hydroxyureamethyl acylfulvene] | 2620 nM |  | 2010 nM | 328 nM |  |  |  | 1350 nM | 1910 nM | 2240 nM | 254 nM |
